Test results from US7022846B2, “Metabolites of prinomastat and their synthesis” (Agouron Pharmaceuticals, Inc., priority 2002, dated 2006).

Key:
[1] = biological target: T1, hCOL1 (Homo sapiens, UniProt P03956); assay: Ki for MMP inhibition, hCOL1; assay type: biochemical
T1 sequence (P03956 100-469): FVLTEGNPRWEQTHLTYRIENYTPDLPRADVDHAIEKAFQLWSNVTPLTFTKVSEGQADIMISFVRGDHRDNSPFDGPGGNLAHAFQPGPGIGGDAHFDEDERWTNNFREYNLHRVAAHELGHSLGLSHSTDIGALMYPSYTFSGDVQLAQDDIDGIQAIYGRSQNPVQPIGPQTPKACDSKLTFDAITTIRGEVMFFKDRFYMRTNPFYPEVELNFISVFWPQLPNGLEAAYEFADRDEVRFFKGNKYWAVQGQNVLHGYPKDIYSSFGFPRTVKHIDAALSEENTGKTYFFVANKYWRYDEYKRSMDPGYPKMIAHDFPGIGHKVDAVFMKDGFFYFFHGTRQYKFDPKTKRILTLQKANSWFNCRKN
Source text: (§1) The present invention is further directed to methods of inhibiting metalloproteinase activity, for example in mammalian tissue, by administering metabolites of prinomastat, such as a compound of the formula 11 or 22, or a pharmaceutically acceptable prodrug, salt or solvate thereof. The activity of the inventive compounds as inhibitors of metalloproteinase activity, such as the activity of MMPs (including stromelysins, collagenases, gelatinases, and/or matrilysin) and/or TNF-[…] convertase, may be measured by any of the methods available to those skilled in the art, including in vivo and/or in vitro assays. Examples of suitable assays fro activity measurements include those described in Anal. Biochem., 147, 437 (1995), Anal. Biochem., 180, 110 (1989), FEBS, 96, 263 (1992) and European Patent Application No. 0 606 046.

[2] = Metabolic composition of human plasma after single oral dose of prinomastat (LC-MS/MS); assay type: in vivo; settings: single 100 mg oral dose of prinomastat
Method: Five healthy male volunteers received a 100 mg oral dose of prinomastat tablets in a phase I, double-blind, ascending single dose study. Blood samples were drawn at pre-selected time points, and the plasma was separated by centrifugation and stored at −20° C.
The human plasma samples at 1.5, 4, 8 and 12 hours pooled from five male volunteers were selected for the analysis of metabolites by liquid chromatography tandem mass spectroscopy (LC-MS/MS). Samples were treated with three volumes of an AcN:MeOH mixture (2:1) to precipitate plasma proteins. Following centrifugation, protein pellets were separated and washed twice with two volumes of the same AcN:MeOH mixture. The combined supernatant was evaporated to dryness under vacuum using a SpeedVac™ (Savant Instrument, Holbrook, N.Y.), and the dried residue was reconstituted in 0.1% formic acid-acetonitrile (90:10), and analyzed by LC-MS/MS.
Two LC-MS/MS systems were used to analyze the plasma samples. […]
The relative peak heights of prinomastat and its metabolites in the LC-MS reconstructed ion chromatograms (RIC) were used to estimate the relative abundance of each component, which was expressed as percent of total prinomastat related compounds. […]
Human plasma pooled from five male volunteers was analyzed for metabolites at 1.5 hr, 4, 8 and 12 hours. […]

[3] = biological target: hCOL3 (Homo sapiens, UniProt P45452); assay: Ki for MMP inhibition, hCOL3; assay type: biochemical
Source text: as §1

[4] = biological target: T2, hGELA (Homo sapiens, UniProt P08253); assay: Ki for MMP inhibition, hGELA; assay type: biochemical
T2 sequence (P08253 110-660): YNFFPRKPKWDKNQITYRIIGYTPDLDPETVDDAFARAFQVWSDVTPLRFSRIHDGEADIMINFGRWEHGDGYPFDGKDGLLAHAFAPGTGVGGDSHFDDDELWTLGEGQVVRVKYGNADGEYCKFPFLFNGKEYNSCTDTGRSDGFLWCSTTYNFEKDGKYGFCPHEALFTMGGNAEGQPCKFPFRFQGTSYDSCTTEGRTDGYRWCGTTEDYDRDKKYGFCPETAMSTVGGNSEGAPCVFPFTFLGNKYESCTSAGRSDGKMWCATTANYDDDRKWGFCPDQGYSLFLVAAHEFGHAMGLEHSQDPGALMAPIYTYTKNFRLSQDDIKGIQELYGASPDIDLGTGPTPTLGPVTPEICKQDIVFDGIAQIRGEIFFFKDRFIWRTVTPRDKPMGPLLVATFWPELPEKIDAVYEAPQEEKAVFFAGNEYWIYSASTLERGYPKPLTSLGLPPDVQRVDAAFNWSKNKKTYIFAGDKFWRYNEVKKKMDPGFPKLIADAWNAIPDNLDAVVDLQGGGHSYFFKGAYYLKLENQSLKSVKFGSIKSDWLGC
Source text: as §1

[5] = biological target: T3, hMATR (Homo sapiens, UniProt P09237); assay: Ki for MMP inhibition, hMATR; assay type: biochemical
T3 sequence (P09237 95-267): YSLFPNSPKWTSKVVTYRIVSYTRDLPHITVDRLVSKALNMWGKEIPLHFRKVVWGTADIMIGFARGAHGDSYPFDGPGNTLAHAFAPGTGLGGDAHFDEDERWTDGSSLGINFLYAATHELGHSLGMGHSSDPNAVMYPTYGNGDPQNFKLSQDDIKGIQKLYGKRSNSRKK
Source text: as §1

[6] = biological target: hSLN (Homo sapiens, UniProt P08254); assay: Ki for MMP inhibition, hSLN; assay type: biochemical
Source text: as §1

Sequence of hSLN (P08254 100-477): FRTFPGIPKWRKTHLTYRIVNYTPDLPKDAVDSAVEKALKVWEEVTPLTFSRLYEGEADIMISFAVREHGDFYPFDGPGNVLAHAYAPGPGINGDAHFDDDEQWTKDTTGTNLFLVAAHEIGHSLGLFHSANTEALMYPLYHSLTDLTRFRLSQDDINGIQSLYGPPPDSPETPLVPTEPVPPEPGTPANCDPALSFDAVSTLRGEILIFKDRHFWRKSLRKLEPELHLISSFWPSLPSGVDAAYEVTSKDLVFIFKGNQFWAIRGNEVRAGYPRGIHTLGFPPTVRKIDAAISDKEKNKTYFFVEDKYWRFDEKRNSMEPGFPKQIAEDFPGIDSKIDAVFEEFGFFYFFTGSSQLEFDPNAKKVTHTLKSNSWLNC

| Ki [1] [nM] | share of the total drug-related substance in human plasma ([2]; later time points) [%] | Ki [3] [nM] | Ki [4] [nM] | Ki [5] [nM] | Ki [6] [nM] | relative abundance among circulating drug-related compounds in human plasma ([2]; early time points) | SMILES |
| --- | --- | --- | --- | --- | --- | --- | --- |
| 396 | ≤ 50 | 4 | 6.6 | 1140 | 5.1 | – | CC1(C)SCCN(S(=O)(=O)c2ccc(Oc3cc[n+]([O-])cc3)cc2)[C@H]1C(=O)NO [M6, (3S)-N-hydroxy-4-(4-((1-oxy-pyrid-4-yl)oxy)benzenesulfonyl)-2,2-dimethyl-tetrahydro-2H-1,4-thiazine-3-carboxamide] |
| – | – | – | – | – | – | major circulating compound | CC1(C)SCCN(S(=O)(=O)c2ccc(Oc3ccncc3)cc2)[C@H]1C(=O)NO [parent drug, (3S)-N-hydroxy-4-(4-(pyrid-4-yloxy)benzenesulfonyl)-2,2-dimethyl-tetrahydro-2H-1,4-thiazine-3-carboxamide, reference compound] |
